Measured values as given in patent US20250275540A1, “USE OF PROTOPORPHYRINOGEN OXIDASE” (BEIJING DABEINONG BIOTECHNOLOGY CO., LTD., priority 2022, published 2025).

System: transgenic maize plants
Assay: Detection of the herbicide tolerance of the transgenic maize plants
Type: in vivo
Details: for The grade of pesticide damage/plant: 0 / The grade of pesticide damage/plant: 1 / The grade of pesticide damage/plant: 2 / The grade of pesticide damage/plant: 3: 7 DAT
From the text: The transformed Arabidopsis thaliana T1 plants were initially selected using glufosinate herbicide. The Arabidopsis thaliana T1 plants (PPOA-01) into which the PPOA-01 nucleotide sequence was introduced, the Arabidopsis thaliana T1 plants (PPOB-01) into which the PPOB-01 nucleotide sequence was introduced, the Arabidopsis thaliana T1 plants (PPOC-01) into which the PPOC-01 nucleotide sequence was introduced, the Arabidopsis thaliana T1 plants (PPOD-01) into which the PPOD-01 nucleotide sequence was introduced, the Arabidopsis thaliana T1 plants (PPOE-01) into which the PPOE-01 nucleotide sequence was introduced, the Arabidopsis thaliana T1 plants (PPOF-01) into which the PPOF-01 nucleotide sequence was introduced, the Arabidopsis thaliana T1 plants (PPO-AP-01) into which the PPO-AP-01 nucleotide sequence was introduced, and the Arabidopsis thaliana T1 plants (control vector) into which the control vector was introduced, the wild-type Arabidopsis thaliana plants (CK) (with 24 plants being included in each genotype) (18 days after sowing) were sprayed with saflufenacil at three concentrations (25 g ai/ha (one-fold field concentration, 1×), 100 g ai/ha (four-fold field concentration, 4×), and 0 g ai/ha (water, 0×)), oxyfluorfen at three concentrations (180 g ai/ha (one-fold field concentration, 1×), 720 g ai/ha (four-fold field concentration, 4×), and 0 g ai/ha (water, 0×)), and flumioxazin at three concentrations (60 g ai/ha (one-fold field concentration, 1×), 240 g ai/ha (four-fold field concentration, 4×), and 0 g ai/ha (water, 0×) to determine the tolerance of Arabidopsis thaliana to the herbicides. After 7 days of spraying (7 DAT), the damage level of each plant caused by the herbicide was evaluated according to the average of the damage levels (%) of plants (the average of the damage levels (%) of plants=the injured leaf area/the total leaf area×100%), i.e., the grade of pesticide damage: grade 0 means that the growth status of plants is essentially consistent with those sprayed with the blank solvent (water); grade 1 means that the average of the damage levels of plants is less than 10%; grade 2 means that the average of the damage levels of plants is greater than 10%; and grade 3 means that the average of the damage levels of plants is 100%. The plants having a growth status falling within grades 0 and 1 are classified as highly resistant plants; those having a growth status falling within grade 2 are classified as poorly resistant plants; and those having a growth status falling within grade 3 are classified as non-resistant plants.
The maize plants into which the PPOA-02 nucleotide sequence was introduced, the maize plants into which the PPOB-02 nucleotide sequence was introduced, the maize plants into which the PPOC-02 nucleotide sequence was introduced, the maize plants into which the PPOD-02 nucleotide sequence was introduced, the maize plants into which the PPOE-02 nucleotide sequence was introduced, the maize plants into which the PPOF-02 nucleotide sequence was introduced, the maize plants into which the PPO-AP-02 nucleotide sequence was introduced, the maize plants (control vector) into which the control vector was introduced, and the wild-type maize plants (CK) (with 16 plants being included in each genotype) (18 days after sowing) were taken and sprayed with saflufenacil at three concentrations (50 g ai/ha (two-fold field concentration, 2×), 100 g ai/ha (four-fold field concentration, 4×), and 0 g ai/ha (water, 0×)), oxyfluorfen at three concentrations (360 g ai/ha (two-fold field concentration, 2×), 720 g ai/ha (four-fold field concentration, 4×), and 0 g ai/ha (water, 0×), and flumioxazin at three concentrations (120 g ai/ha (two-fold field concentration, 2×), 240 g ai/ha (four-fold field concentration, 4×), and 0 g ai/ha (water, 0×) to determine the tolerance of maize plants to the herbicides. […]

[1] = genotype Control vector, 50 g ai/ha
[2] = genotype Control vector, 100 g ai/ha
[3] = genotype PPO-AP-02, 100 g ai/ha

CC(C)N(C)S(=O)(=O)NC(=O)c1cc(-n2c(=O)cc(C(F)(F)F)n(C)c2=O)c(F)cc1Cl [saflufenacil, N′-[2-chloro-4-fluoro-5-(3-methyl-2,6-dioxo-4-(trifluoromethyl)-3,6-dihydro-1 (2H)-pyrimidine)benzoyl]-N-isopropyl-N-methylsulfamide]
The grade of pesticide damage/plant: 0 (genotype CK, 50 g ai/ha): 0 plant | The grade of pesticide damage/plant: 1 (genotype CK, 50 g ai/ha): 0 plant | The grade of pesticide damage/plant: 2 (genotype CK, 50 g ai/ha): 0 plant | The grade of pesticide damage/plant: 3 (genotype CK, 50 g ai/ha): 16 plant | The grade of pesticide damage/plant: 0 (genotype CK, 100 g ai/ha): 0 plant | The grade of pesticide damage/plant: 1 (genotype CK, 100 g ai/ha): 0 plant | The grade of pesticide damage/plant: 2 (genotype CK, 100 g ai/ha): 0 plant | The grade of pesticide damage/plant: 3 (genotype CK, 100 g ai/ha): 16 plant | The grade of pesticide damage/plant: 0 [1]: 0 plant | The grade of pesticide damage/plant: 1 [1]: 0 plant | The grade of pesticide damage/plant: 2 [1]: 0 plant | The grade of pesticide damage/plant: 3 [1]: 16 plant | The grade of pesticide damage/plant: 0 [2]: 0 plant | The grade of pesticide damage/plant: 1 [2]: 0 plant | The grade of pesticide damage/plant: 2 [2]: 0 plant | The grade of pesticide damage/plant: 3 [2]: 16 plant | The grade of pesticide damage/plant: 0 (genotype PPO-AP-02, 50 g ai/ha): 0 plant | The grade of pesticide damage/plant: 1 (genotype PPO-AP-02, 50 g ai/ha): 0 plant | The grade of pesticide damage/plant: 2 (genotype PPO-AP-02, 50 g ai/ha): 7 plant | The grade of pesticide damage/plant: 3 (genotype PPO-AP-02, 50 g ai/ha): 9 plant | The grade of pesticide damage/plant: 0 [3]: 0 plant | The grade of pesticide damage/plant: 1 [3]: 0 plant | The grade of pesticide damage/plant: 2 [3]: 1 plant | The grade of pesticide damage/plant: 3 [3]: 15 plant | tolerance to the herbicide (in words) (genotype PPO-AP-02, four-fold field concentration): basically no tolerance | share of the plants that exhibited no tolerance (genotype PPO-AP-02, two-fold field concentration): about 56% | The grade of pesticide damage/plant: 0 (genotype PPOA-02, 50 g ai/ha): 16 plant | The grade of pesticide damage/plant: 1 (genotype PPOA-02, 50 g ai/ha): 0 plant | The grade of pesticide damage/plant: 2 (genotype PPOA-02, 50 g ai/ha): 0 plant | The grade of pesticide damage/plant: 3 (genotype PPOA-02, 50 g ai/ha): 0 plant | The grade of pesticide damage/plant: 0 (genotype PPOA-02, 100 g ai/ha): 16 plant | The grade of pesticide damage/plant: 1 (genotype PPOA-02, 100 g ai/ha): 0 plant | The grade of pesticide damage/plant: 2 (genotype PPOA-02, 100 g ai/ha): 0 plant | The grade of pesticide damage/plant: 3 (genotype PPOA-02, 100 g ai/ha): 0 plant | The grade of pesticide damage/plant: 0 (genotype PPOB-02, 50 g ai/ha): 16 plant | The grade of pesticide damage/plant: 1 (genotype PPOB-02, 50 g ai/ha): 0 plant | The grade of pesticide damage/plant: 2 (genotype PPOB-02, 50 g ai/ha): 0 plant | The grade of pesticide damage/plant: 3 (genotype PPOB-02, 50 g ai/ha): 0 plant | The grade of pesticide damage/plant: 0 (genotype PPOB-02, 100 g ai/ha): 16 plant | The grade of pesticide damage/plant: 1 (genotype PPOB-02, 100 g ai/ha): 0 plant | The grade of pesticide damage/plant: 2 (genotype PPOB-02, 100 g ai/ha): 0 plant | The grade of pesticide damage/plant: 3 (genotype PPOB-02, 100 g ai/ha): 0 plant | The grade of pesticide damage/plant: 0 (genotype PPOC-02, 50 g ai/ha): 16 plant | The grade of pesticide damage/plant: 1 (genotype PPOC-02, 50 g ai/ha): 0 plant | The grade of pesticide damage/plant: 2 (genotype PPOC-02, 50 g ai/ha): 0 plant | The grade of pesticide damage/plant: 3 (genotype PPOC-02, 50 g ai/ha): 0 plant | The grade of pesticide damage/plant: 0 (genotype PPOC-02, 100 g ai/ha): 16 plant | The grade of pesticide damage/plant: 1 (genotype PPOC-02, 100 g ai/ha): 0 plant | The grade of pesticide damage/plant: 2 (genotype PPOC-02, 100 g ai/ha): 0 plant | The grade of pesticide damage/plant: 3 (genotype PPOC-02, 100 g ai/ha): 0 plant | The grade of pesticide damage/plant: 0 (genotype PPOD-02, 50 g ai/ha): 16 plant | The grade of pesticide damage/plant: 1 (genotype PPOD-02, 50 g ai/ha): 0 plant | The grade of pesticide damage/plant: 2 (genotype PPOD-02, 50 g ai/ha): 0 plant | The grade of pesticide damage/plant: 3 (genotype PPOD-02, 50 g ai/ha): 0 plant | The grade of pesticide damage/plant: 0 (genotype PPOD-02, 100 g ai/ha): 16 plant | The grade of pesticide damage/plant: 1 (genotype PPOD-02, 100 g ai/ha): 0 plant | The grade of pesticide damage/plant: 2 (genotype PPOD-02, 100 g ai/ha): 0 plant | The grade of pesticide damage/plant: 3 (genotype PPOD-02, 100 g ai/ha): 0 plant | The grade of pesticide damage/plant: 0 (genotype PPOE-02, 50 g ai/ha): 16 plant | The grade of pesticide damage/plant: 1 (genotype PPOE-02, 50 g ai/ha): 0 plant | The grade of pesticide damage/plant: 2 (genotype PPOE-02, 50 g ai/ha): 0 plant | The grade of pesticide damage/plant: 3 (genotype PPOE-02, 50 g ai/ha): 0 plant | The grade of pesticide damage/plant: 0 (genotype PPOE-02, 100 g ai/ha): 16 plant | The grade of pesticide damage/plant: 1 (genotype PPOE-02, 100 g ai/ha): 0 plant | The grade of pesticide damage/plant: 2 (genotype PPOE-02, 100 g ai/ha): 0 plant | The grade of pesticide damage/plant: 3 (genotype PPOE-02, 100 g ai/ha): 0 plant | The grade of pesticide damage/plant: 0 (genotype PPOF-02, 50 g ai/ha): 16 plant | The grade of pesticide damage/plant: 1 (genotype PPOF-02, 50 g ai/ha): 0 plant | The grade of pesticide damage/plant: 2 (genotype PPOF-02, 50 g ai/ha): 0 plant | The grade of pesticide damage/plant: 3 (genotype PPOF-02, 50 g ai/ha): 0 plant | The grade of pesticide damage/plant: 0 (genotype PPOF-02, 100 g ai/ha): 10 plant | The grade of pesticide damage/plant: 1 (genotype PPOF-02, 100 g ai/ha): 6 plant | The grade of pesticide damage/plant: 2 (genotype PPOF-02, 100 g ai/ha): 0 plant | The grade of pesticide damage/plant: 3 (genotype PPOF-02, 100 g ai/ha): 0 plant | tolerance to the herbicide (in words) (genotypes PPOA-02 to PPOF-02, four-fold field concentration): high-resistant tolerance | tolerance to the herbicide (in words) (genotypes PPOA-02 to PPOF-02, two-fold field concentration): high-resistant tolerance
